Assay results: paper PMC7126937 (Bioorganic & Medicinal Chemistry, 2014)
“And” between values parts separate entries of the source, which are not always exact repeats. Identical values can stand only once.

These molecules were tested on influenza virus A/California/7/09 (H1N1)pdm09.
Assay type: cell-based, influenza virus A/California/07/09 (H1N1)pdm09

Structure (SMILES) | ED50 (50% effective concentration; the concentration leading to 50% inhibition of virus replication)
NC12CC3CC(CC(C3)C1)C2 [Amantadine, 1-aminoadamantane, reference compound] | 64.2 ± 4.7 µM
CC1(C)C2CC[C@@]1(C)C(=O)C2 [Compound 1, (1R)-(+)-camphor, reference compound] | 1644.7 ± 144.4 µM
CC1(C)[C@@H]2CC[C@@]1(C)/C(=N/CCC/N=C1\C[C@H]3CC[C@]1(C)C3(C)C)C2 [Compound 2a, N^1E,N^3E-N^1,N^3-bis((1R,2R,4R)-1,7,7-trimethylbicyclo[2.2.1]heptan-2-ylidene)propane-1,3-diamine] | 9.3 ± 0.8 µM
CC1(C)[C@@H]2CC[C@@]1(C)/C(=N/CCCCCC/N=C1\C[C@H]3CC[C@]1(C)C3(C)C)C2 [Compound 2b, N^1E,N^6E-N^1,N^6-bis((1R,2R,4R)-1,7,7-trimethylbicyclo[2.2.1]heptan-2-ylidene)hexane-1,6-diamine] | 15.1 ± 1.1 µM
CC1(C)[C@@H]2CC[C@@]1(C)/C(=N/CCCCCCC/N=C1\C[C@H]3CC[C@]1(C)C3(C)C)C2 [Compound 2c, N^1E,N^7E-N^1,N^7-bis((1R,2R,4R)-1,7,7-trimethylbicyclo[2.2.1]heptan-2-ylidene)heptane-1,7-diamine] | 22.8 ± 2.3 µM
CC1(C)[C@@H]2CC[C@@]1(C)/C(=N/CCCCCCCC/N=C1\C[C@H]3CC[C@]1(C)C3(C)C)C2 [Compound 2d, N^1E,N^8E-N^1,N^8-bis((1R,2R,4R)-1,7,7-trimethylbicyclo[2.2.1]heptan-2-ylidene)octane-1,8-diamine] | 24.2 ± 2.1 µM
CC1(C)[C@@H]2CC[C@@]1(C)/C(=N/CCCCCCCCCCCC/N=C1\C[C@H]3CC[C@]1(C)C3(C)C)C2 [Compound 2e, N^1E,N^12E-N^1,N^12-bis((1R,2R,4R)-1,7,7-trimethylbicyclo[2.2.1]heptan-2-ylidene)dodecane-1,12-diamine] | 45.0 ± 3.9 µM
CC1(C)[C@@H]2CC[C@@]1(C)/C(=N/c1ccc(Cc3ccc(/N=C4\C[C@H]5CC[C@]4(C)C5(C)C)cc3)cc1)C2 [Compound 2f, (E)-N-((1R,2R,4R)-1,7,7-trimethylbicyclo[2.2.1]heptan-2-ylidene)-4-(4-((E)-((1R,2R,4R)-1,7,7-trimethylbicyclo[2.2.1]heptan-2-ylidene)amino)benzyl)aniline] | 351.4 ± 32.3 µM
CC1(C)[C@@H]2CC[C@@]1(C)/C(=N/c1ccc(Oc3ccc(/N=C4\C[C@H]5CC[C@]4(C)C5(C)C)cc3)cc1)C2 [Compound 2g, (E)-N-((1R,2R,4R)-1,7,7-trimethylbicyclo[2.2.1]heptan-2-ylidene)-4-(4-((E)-((1R,2R,4R)-1,7,7-trimethylbicyclo[2.2.1]heptan-2-ylidene)amino)phenoxy)aniline] | 373.4 ± 35.1 µM
CC1(C)[C@@H]2CC[C@@]1(C)[C@H](NCCCCCCN[C@@H]1C[C@H]3CC[C@]1(C)C3(C)C)C2 [Compound 3b, N^1,N^6-bis((1R,2R,4R)-1,7,7-trimethylbicyclo[2.2.1]heptan-2-yl)hexane-1,6-diamine] | 0.77 µM and 0.77 ± 0.1 µM
CC1(C)[C@@H]2CC[C@@]1(C)[C@H](NCCCCCCCN[C@@H]1C[C@H]3CC[C@]1(C)C3(C)C)C2 [Compound 3c, N^1,N^7-bis((1R,2R,4R)-1,7,7-trimethylbicyclo[2.2.1]heptan-2-yl)heptane-1,7-diamine] | 3.2 µM and 3.2 ± 0.2 µM
CC1(C)[C@@H]2CC[C@@]1(C)[C@H](NCCCCCCCCCCCCN[C@@H]1C[C@H]3CC[C@]1(C)C3(C)C)C2 [Compound 3e, N^1,N^12-bis((1R,2R,4R)-1,7,7-trimethylbicyclo[2.2.1]heptan-2-yl)dodecane-1,12-diamine] | 4.4 ± 0.3 µM
CC1(C)[C@@H]2CC[C@@]1(C)[C@H](Nc1ccc(Cc3ccc(N[C@@H]4C[C@H]5CC[C@]4(C)C5(C)C)cc3)cc1)C2 [Compound 3f, (1R,2R,4R)-1,7,7-trimethyl-N-(4-(4-((1R,2R,4R)-1,7,7-trimethylbicyclo[2.2.1]heptan-2-ylamino)benzyl)phenyl)bicyclo[2.2.1]heptan-2-amine] | 153.2 ± 11.9 µM
CC1(C)[C@@H]2CC[C@@]1(C)[C@H](Nc1ccc(Oc3ccc(N[C@@H]4C[C@H]5CC[C@]4(C)C5(C)C)cc3)cc1)C2 [Compound 3g, (1R,2R,4R)-1,7,7-trimethyl-N-(4-(4-((1R,2R,4R)-1,7,7-trimethylbicyclo[2.2.1]heptan-2-ylamino)phenoxy)phenyl)bicyclo[2.2.1]heptan-2-amine] | 207.6 ± 19.5 µM
CN(CCCCCCN(C)[C@@H]1C[C@H]2CC[C@]1(C)C2(C)C)[C@@H]1C[C@H]2CC[C@]1(C)C2(C)C [Compound 4b, N^1,N^6-dimethyl-N^1,N^6-bis((1R,2R,4R)-1,7,7-trimethylbicyclo[2.2.1]heptan-2-yl) hexane-1,6-diamine] | 110.1 ± 10.4 µM
CN(CCCCCCCN(C)[C@@H]1C[C@H]2CC[C@]1(C)C2(C)C)[C@@H]1C[C@H]2CC[C@]1(C)C2(C)C [Compound 4c, N^1,N^7-dimethyl-N^1,N^7-bis((1R,2R,4R)-1,7,7-trimethylbicyclo[2.2.1]heptan-2-yl)heptane-1,7-diamine] | 40.4 ± 3.8 µM
CC1(C)[C@@H]2CC[C@@]1(C)/C(=N/c1ccc(Cc3ccc(N)cc3)cc1)C2 [Compound 5f, (E)-4-(4-aminobenzyl)-N-((1R,2R,4R)-1,7,7-trimethylbicyclo[2.2.1]heptan-2-ylidene)aniline] | 15.0 ± 1.2 µM
CC1(C)[C@@H]2CC[C@@]1(C)/C(=N/c1ccc(Oc3ccc(N)cc3)cc1)C2 [Compound 5g, (E)-4-(4-aminophenoxy)-N-((1R,2R,4R)-1,7,7-trimethylbicyclo[2.2.1]heptan-2-ylidene)aniline] | 4.2 ± 0.0 µM
CC(N)C12CC3CC(CC(C3)C1)C2.Cl (stereo not drawn) [Rimantadine, α-methyl-1-adamantylamine hydrochloride, reference compound] | 67.0 ± 4.9 µM
